Columns and labels:
[1] = test system: mouse model of idiopathic pulmonary fibrosis; assay: bleomycin mouse model of idiopathic pulmonary fibrosis; assay type: in vivo, C57/BL6J mice; conditions: vs vehicle
Procedure: 8 week old female C57/BL6J mice were purchased from Jackson Labs (stock #000664). All mouse studies were approved by the institutional animal care and use committee at Case Western Reserve University.
To induce disease onset, mice were anesthetized with ketamine/xylazine and the trachea exposed by cervical […]. Bleomycin sulfate (Enzo-BML-AP302-0010) was dissolved in H2O and administered intratracheally as a single dose of 2 mg/kg in 50 μl solution per animal.
Mortality was observed daily over the duration of the study. Body weights were measured prior to instillation and twice weekly post-bleomycin instillation.
Hydroxyproline was used to measure collagen content in mouse lungs (Sigma-MAK008-1KT). Briefly, mice were sacrificed and the right lung dissected for collagen quantitation. Experiments were performed according to the manufacturer's protocol. […] The hydrolyzed samples were incubated with 4-(Dimethylamino) benzaldehyde (DMAB) for 90 min at 60° C., and the absorbance of oxidized hydroxyproline was measured at 560 nm.

[2] = chemical stability when incubated with mouse liver extracts; assay type: in vitro ADME
[3] = test system: PGE2 production by cell lines; assay: PGE2 production by cell lines; assay type: cell-based
[4] = plasma half-life after IP injection into mice; assay type: in vivo; conditions: mouse, injected IP into mice
[5] = chemical stability when incubated with rat liver extracts; assay type: in vitro ADME
[6] = chemical stability when incubated with human liver extracts; assay type: in vitro ADME
[7] = target: T1, recombinant 15-PGDH (Homo sapiens, UniProt P15428); assay: inhibition of recombinant 15-PGDH; assay type: biochemical
T1 sequence (P15428 1-266): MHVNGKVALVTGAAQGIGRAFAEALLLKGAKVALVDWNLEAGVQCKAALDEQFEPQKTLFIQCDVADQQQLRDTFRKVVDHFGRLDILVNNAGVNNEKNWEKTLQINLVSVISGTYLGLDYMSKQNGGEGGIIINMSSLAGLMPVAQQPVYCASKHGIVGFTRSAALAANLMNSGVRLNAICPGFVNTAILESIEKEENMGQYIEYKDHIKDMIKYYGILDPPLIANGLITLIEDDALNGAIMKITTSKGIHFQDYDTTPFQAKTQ

[8] = test system: mouse model of intestinal fibrosis; assay: DSS chronic colitis mouse model of intestinal fibrosis; assay type: in vivo, FVB/N mice; conditions: 5 mg/kg IP twice a day for 28 days from day 41, colons day 69, vs vehicle
Procedure: To establish a model of intestinal fibrosis due to chronic colitis, 8-week male FVB/N mice were subjected to three cycles of dextran sodium sulfate (DSS; 2% w/v) in sterile drinking water. Each cycle consisted of 7 days of DSS followed by 10 days of recovery without DSS. […] On day 69, colons were harvested from mice, longitudinally open, and embedded in agar for orientation, and fixed in formalin overnight. Slides were prepared from paraffin-embedded formalin-fixed samples according to standard procedures. The degree of fibrosis in the mouse colon in the two groups were compared by Masson's Trichrome staining. The intensity of positive trichrome staining was quantified using ImageJ software in the following manner. 10 evenly spaced images were captured at 20× from each third of the colon from each mouse. (FIGS. 7(A-D)) Significant lymphovascular compartments or extracolonic connective tissue attachments seen on slides were excluded during the image capture. RGB channels were split from the images, and the blue channel from each image was divided by the red channel. After generating an intensity histogram of all pixels in the resultant image, the area under the curve (AUC) was calculated for intensities above 1.3 (blue/red) cutoff. The sum of AUC (total trichrome intensity) was normalized by the colon length.

[9] = chemical stability when incubated with hepatocyte extracts; assay type: in vitro ADME
[10] = chemical stability in aqueous solutions; assay type: physicochemical; conditions: over broad pH range
[11] = chemical stability when incubated with hepatocyte cell lines; assay type: in vitro ADME
[12] = test system: mice; assay: toxicity after IP injection into mice
[13] = 5.0 mg/kg IP 2× daily for 35 days after bleomycin

CCCC[S+]([O-])c1sc2nc(-c3cccs3)cc(-c3ccccc3)c2c1N (stereo not drawn) [SW033291, 2-(butylsulfinyl)-4-phenyl-6-(thiophen-2-yl)thieno[2,3-b]pyridin-3-amine]
survival [1, 13]: improved survival
weight change [1, 13]: enhanced maintenance of weight
collagen deposition (tissue hydroxyproline content) ([1]; lung, 5.0 mg/kg IP 2× daily after bleomycin): reduced collagen deposition

CCCC[S+]([O-])c1sc2nc(-c3nccs3)cc(-c3cnc(C)n3C)c2c1N (stereo not drawn) [formula (X)]
chemical stability with liver extracts [2]: chemically stable
concentration at which PGE2 production by cell lines is increased [3]: 20 nM
half-life [4]: 0.55 h
chemical stability with liver extracts [5]: chemically stable
chemical stability with liver extracts [6]: chemically stable
concentration at which recombinant 15-PGDH is inhibited [7]: 3 nM

CCCC[S+]([O-])c1sc2nc(-c3cccs3)cc(-c3ccccc3)c2c1N (single isomer, unassigned; (+)) [(+)SW033291]
colonic fibrosis (Masson's Trichrome staining intensity normalized by colon length) [8]: substantially reduced

CCCC[S+]([O-])c1sc2nc(-c3cccs3)cc(-c3ccccc3)c2c1N (stereo not drawn) [formula (IX)]
PGE2 production by cell lines [3]: increase PGE2 production
chemical stability with hepatocyte extracts [9]: chemically stable
chemical stability in aqueous solutions [10]: chemically stable
chemical stability with hepatocyte cell lines [11]: chemically stable
half-life [4]: 4.22 h
toxicity ([12]; injected IP into mice at 0.3 μmole/per mouse twice daily for 21 days): no toxicity
immediate toxicity over 24 hours ([12]; injected IP into mice at 0.6 μmole/per mouse): no immediate toxicity
immediate toxicity over 24 hours ([12]; injected IP into mice at 1.2 μmole/per mouse): no immediate toxicity
